Experimental data as given in patent publication US11351206B2, “Probiotic sports nutrition compositions” (Ganeden Biotech, Inc., priority 2011, dated 2022).

Test system: various bacterial pathogens
Assay: Zone of inhibition assay, positive control
Assay type: cell-based
Conditions: 1 μl volume
Source text: The probiotic organisms described herein, e.g., Bacillus coagulans strain GBI-30 or GANEDEN BC-30™, ATCC Designation Number PTA-6086, promote digestive and oral health and support the immune system. The ability of Bacillus coagulans to inhibit various bacterial pathogens was quantitatively ascertained by use of an in vitro assay. This assay is part of a standardized bacterial pathogen screen (developed by the U.S. Food and Drug Administration (FDA)) and is commercially available on solid support disks (DIFCO® BACTROL® Antibiotic Disks). To perform the assay, potato-dextrose plates)(DIFCO® were initially prepared using standard procedures. The plates were then individually inoculated with the bacteria (approximately 1.5×10^6 CFU) to be tested so as to form a confluent bacterial bed.
Inhibition of microorganisms (e.g. gastrointestinal pathogens) by Bacillus coagulans was subsequently ascertained by placing approximately 1.8×10^6 CFU of Bacillus coagulans in 10 μl of broth or buffer, directly in the center of the potato-dextrose plate with one test locus being approximately 8 mm in diameter per plate. A minimum of three test loci were used for each assay. […] The plates were then incubated for approximately about 18 hr at 30° C., at which time the zones of inhibition were measured. […]

For `O=CCCCC=O` [glutaraldehyde], which inhibition (about 18 hr at 30° C.) is on record?
The inhibition was “excellent “inhibition””.

What about the “zone of inhibition diameter” value (average of three tests) of the same molecule?
The value was “approximately 16.2 mm”.
